Experimental data reported in US7205261B2, “Use of certain N-acylethanolamines to achieve ethylene- and cytokinin-like effects in plants and fungi” (Nutra-Park, Inc., priority 2002, dated 2007).
Where two headings read alike, the source gives them in different places.

Legend:
[1] = test system: Raphanus sativus L. cv. Cherry Belle cotyledons; assay: Radish cotyledon bioassay (expansion growth and chlorophyll accumulation); format: in vivo; parameters: Chlorophyll a + b: unit not given here; conditions: for Change in fresh weight: continuous illumination, 25° C., ten cotyledons; for activity at 20 µg/mL: Raphanus sativus, read-out: Change in fresh weight, % of control; for ethylene-like activities (summary of the examples) / cytokinin-like activities (summary of the examples): summary statement in the description
From the text: Radish cotyledon bioassay: This bioassay using Raphanus sativus L. cv. Cherry Belle cotyledons was developed by Letham, DS (Physiologia Plantarum 25, 391–396, 1971, incorporated by reference in its entirety) to evaluate the efficacy of cytokinin on cell enlargement. Success using this assay is not restricted to radish. […] In addition to their effect on cell division, cytokinin plays a major role in driving cell enlargement. Compounds in this class of phytohormone and with cytokinin activity also help maintain photosynthetic activity and productivity and abolish proteolytic activity. In cotyledon leaf systems, a requirement for cytokinin is critical and removal of the roots (i.e. the presumed source of cytokinin) renders the cotyledon leaves unable to expand. Exposure to cytokinin (0.02–22 μg/ml) results in a dramatic increase in fresh weight of cotyledons within 72 hours. This effect is not observed with either gibberellin or auxin and is usually delayed or inhibited by abscisic acid and the ethylene precursor, 1-aminocyclopropane-1-carboxylic acid (ACC). […] Thus, the mode of action of cytokinin in this system appears to be similar to that of indole-3-acetic acid (IAA) in auxin-induced stem elongation, a process that depends on an increase in the mechanical extensibility of the cell wall. However, cytokinin antagonizes IAA-mediated cell elongation and appears to do so by promoting ethylene production. Furthermore, cytokinin-induced cell expansion is not usually accompanied by proton (H^+) extrusion and no change in plasma membrane ATPase activity is evident.
Seeds of Raphanus sativus L. cv. Cherry-Belle were germinated in darkness at 24° C. for 36 h in Petri dishes containing filter paper wetted with distilled water. The smaller of the two cotyledons was excised, the fresh weight determined, and 10 cotyledons placed adaxial side down on filter paper in Petri dishes containing 10 ml of KPO4 buffer (2 mM, pH 6.0) and the compounds to be tested at 20 mg/l. […] Chlorophyll content was determined after extraction of tissue into 80% ethanol (containing butylated hydroxytoluene (BHT) 10 mg/l) using the equations Chl a=(13.95A663)−(6.88A647) and Chl b=(24.96A652)−(7.32A663) as described by Lichtenthaler, HK, Methods in Enzymology 148: 350–382, 1987, incorporated by reference in its entirety. FIG. 6 illustrates the difference in cotyledon size in response to the cytokinin kinetin.

[2] = test system: maize roots; assay: Corn root bioassay (ethylene production by maize roots); format: in vivo, Zea mays L.; conditions: for activity at 20 µg/mL: Zea mays, read-out: Ethylene, % of control; for activity at 20 µg/mL / Ethylene / Ethylene, % of control: 20 mg/l; for increase of ethylene production (in words): other experiments using a different treatment time
Method: Corn root bioassay: It is well established that roots of Zea mays produce ethylene when exposed to a variety of stresses (for review, see Morgan, PW and Drew, MC, Physiologia Plantarum 100: 620–630, 1997). Mechanical impedance and hypoxia both induce ethylene formation and usually as early as 1 hour after exposure. In response to ethylene treatment, maize roots show decreased expansion and elongation, a high incidence of cell death and the formation of aerenchyma tissue—particularly evident when roots are exposed to hypoxic conditions (Drew, MC et al., Trends in Plant Science 5: 123–127, 2000, Morgan and Drew 1997).
Seeds of Zea mays L. were sown in flats of Perlite, covered with a layer of vermiculite, and irrigated daily with water and/or 1/10 Hoagland solution. Seedlings were cultivated under continuous illumination at 22–25° C. and used when 7 d old. Seedlings were removed from the Perlite and washed under running tap water. Seedlings were allowed to acclimate in water and/or 1/10 Hoagland solution for several hours before being transferred to Falcon tubes containing the test compounds (all 20 mg/l) prepared in 1/10 Hoagland solution. […] Roots were then transferred to gas-tight tubes each containing 200 μl of water. The tubes were sealed and incubated at 26° C. for 1–2 h in darkness before gas samples were drawn from the incubation tubes using a 1 ml syringe and assayed by gas chromatography (Romera, FJ et al. (1999) Annals of Botany 83, 51–55).

[3] = Table 2, 72 h incubation, 20 mg/l
[4] = experiment 1, 72 h illumination, roots incubated 2 h in gas tight tubes
[5] = experiment 2, 36 h illumination, roots incubated 2 h in darkness at 24° C.
[6] = Table 3, 48 h incubation, 20 mg/l

| Compound | Chlorophyll a/b ([1]; Experiment 1, 20 mg/l, 72 h) | Change in fresh weight ([1]; Experiment 1, 20 mg/l, 72 h) [mg] | Chlorophyll (mg/g FW) a + b ([1]; Experiment 2, 20 mg/l, 48 h) [mg/g FW] | Chlorophyll (μg/cotyledon) a + b ([1]; Experiment 2, 20 mg/l, 48 h) [μg/cotyledon] | Chlorophyll a/b ([1]; Experiment 2, 20 mg/l, 48 h) | Change in fresh weight ([1]; Experiment 2, 20 mg/l, 48 h) [mg] | activity at 20 µg/mL ([1]; Experiment 1, 20 mg/l, 72 h) [%] | activity at 20 µg/mL ([1]; Experiment 2, 20 mg/l, 48 h) [%] | ethylene-like activities (summary of the examples) [1] | hormone-like activity with respect to expansion growth (in words) [1, 6] | further results |
| --- | --- | --- | --- | --- | --- | --- | --- | --- | --- | --- | --- |
| NC1(C(=O)O)CC1 [ACC, 1-aminocyclopropane-1-carboxylic acid, reference compound] | 3.7 | 5.54 ± 2.87 | 1.42 | 12.27 | 1.8 | 4.25 ± 0.63 | 40 | 52 |  |  |  |
| c1coc(CNc2ncnc3[nH]cnc23)c1 [Kinetin, kinetin, reference compound] | 1.2 | 23.74 ± 7.92 | 0.81 | 25.78 | 1.8 | 27.26 ± 2.88 | 169 | 336 |  |  |  |
| O=CNCCO [NAE-1, N-Formyl-2-aminoethanol] | 1.7 | 7.61 ± 3.42 | 1.62 | 21.19 | 2.0 | 8.68 ± 1.70 | 54 | 107 | ethylene-like activities |  | Chlorophyll a + b ([1]; Experiment 1, 20 mg/l, 72 h): 0.59; cotyledon expansion (in words) [1, 3]: significantly slowed cotyledon expansion; activity at 20 µg/mL ([2]; experiment 1, 72 h): 175%; activity at 20 µg/mL ([2]; experiment 2, 36 h): 157%; Ethylene [2, 4]: 1034.4 ± 255.3 nL/g FW/h; Ethylene [2, 5]: 45.32 ± 18.98 pmol/g FW/h; increase of ethylene production (in words) [2]: effective |
| CC(=O)NCCO [NAE-2, N-Acetyl-2-aminoethanol] | 1.3 | 12.52 ± 2.83 | 1.94 | 19.88 | 2.0 | 5.86 ± 1.36 | 89 | 72 | ethylene-like activities | ethylene-like activity | chlorophyll accumulation (in words) [1, 3]: greater effect than other NAEs; cotyledon expansion (in words) [1, 6]: slowed cotyledon expansion; activity at 20 µg/mL ([2]; experiment 1, 72 h): 146%; activity at 20 µg/mL ([2]; experiment 2, 36 h): 160%; Ethylene [2, 5]: 45.96 ± 12.53 pmol/g FW/h |
| CCCC(=O)NCCO [NAE-4:0, N-Butyroyl-2-aminoethanol] |  |  | 2.00 | 23.49 | 1.9 | 7.15 ± 1.16 |  | 88 | ethylene-like activities | ethylene-like activity | cytokinin-like activities (summary of the examples) [1]: cytokinin-like activities; increase of ethylene production (in words) [2]: effective |
| CCCCCC(=O)NCCO [NAE-6:0, N-Hexanoly-2-aminoethanol] | 1.6 | 8.04 ± 3.86 | 1.73 | 19.80 | 2.0 | 7.02 ± 0.98 |  |  | ethylene-like activities | ethylene-like activity | Change in fresh weight, % of control ([1]; Experiment 1, 20 mg/l, 72 h): 57%; Chlorophyll a + b ([1]; Experiment 1, 20 mg/l, 72 h): 0.65; Change in fresh weight, % of control ([1]; Experiment 2, 20 mg/l, 48 h): 87%; cotyledon expansion (in words) [1, 3]: significantly slowed cotyledon expansion; Ethylene, % of control ([2]; Experiment 1, 72 h): 210%; Ethylene [2, 4]: 1244.0 ± 406.2 nL/g FW/h; Ethylene, % of control ([2]; experiment 2, 36 h): 141%; Ethylene [2, 5]: 40.58 ± 11.85 pmol/g FW/h; relative efficacy on ethylene formation (in words) ([2]; first experiment (Table 4)): strongest effect |
| CCCCCCCCCCCC(=O)NCCO [NAE-12:0, N-Dodecanoyl-2-aminoethanol] |  |  | 1.79 | 23.16 | 2.0 | 8.53 ± 1.59 |  |  |  |  | activity at 20 µg/mL ([1]; 48 h): 105%; cytokinin-like activities (summary of the examples) [1]: cytokinin-like activities |
| CCCCCCCCCCCCCCCC(=O)NCCO [NAE-16:0, N-Hexadecanoyl-2-aminoethanol] |  |  | 1.44 | 24.18 | 1.7 | 12.42 ± 2.26 |  | 153 |  | cytokinin-like activity | chlorophyll content per unit mass (in words) [1, 6]: decreased chlorophyll content per unit mass; chlorophyll per cotyledon (in words) [1, 6]: increased chlorophyll per cotyledon; cytokinin-like activities (summary of the examples) [1]: cytokinin-like activities |
| CCCCCCCCCCCCCCCCCC(=O)NCCO [NAE-18:0, N-Octadecanoyl-2-aminoethanol] |  |  | 1.85 | 22.42 | 1.9 | 7.75 ± 1.01 |  | 96 |  |  |  |
| O=C(NCCO)c1ccccc1 [NAE-Bz, N-Benzoyl-2-aminoethanol] |  |  | 1.77 | 20.87 | 1.8 | 7.36 ± 1.00 |  | 91 |  |  |  |
| CCCCC(CC)C(=O)NCCO (stereo not shown) [NAE-EH, N-(2-Ethylhexanoyl)-2-aminoethanol] |  |  | 1.63 | 19.73 | 1.8 | 7.69 ± 1.16 |  | 95 |  |  |  |
